Data as given in publication PMC7759869 (Biomedicines, 2020).
Where two headings read alike, the source gives them in different places. Marks after values point to notes of the source that are not given here.

Experiments:
human liver microsomes [1] = experiment: Oxidation of cabozantinib by hepatic microsomes of individual human donors (HPLC of metabolites); type: in vitro ADME; conditions: 50 µM cabozantinib, 20 min
CYP3A4 + cyt b5 = target: T1, CYP3A4 + cyt b5 (Homo sapiens, UniProt P08684); experiment: Cabozantinib oxidation by recombinant CYP3A4 in the presence of cyt b5 (Supersomes); type: in vitro ADME; conditions: for VMax: formation of the metabolite from cabozantinib by CYP3A4 + cyt b5
T1 construct: purchased Corning (Corning, NY, USA); host or cells: insect cells (baculovirus)
T1 sequence (P08684 whole entry): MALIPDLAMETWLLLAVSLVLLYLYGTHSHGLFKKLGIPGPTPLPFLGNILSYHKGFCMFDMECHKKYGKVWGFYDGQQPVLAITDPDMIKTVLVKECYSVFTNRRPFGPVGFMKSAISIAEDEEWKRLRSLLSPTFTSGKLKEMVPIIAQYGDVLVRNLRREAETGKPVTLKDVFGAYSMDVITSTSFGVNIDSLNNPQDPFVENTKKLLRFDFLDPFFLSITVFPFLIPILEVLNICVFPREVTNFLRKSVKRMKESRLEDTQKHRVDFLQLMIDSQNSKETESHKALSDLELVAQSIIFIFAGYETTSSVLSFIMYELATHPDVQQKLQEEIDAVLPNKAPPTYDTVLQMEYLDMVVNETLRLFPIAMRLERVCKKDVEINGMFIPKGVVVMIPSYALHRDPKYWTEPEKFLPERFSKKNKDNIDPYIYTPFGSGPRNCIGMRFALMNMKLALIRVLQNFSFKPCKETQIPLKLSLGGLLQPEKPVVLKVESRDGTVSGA
Description: (§1) Cabozantinib was from MedChemExpress (Monmouth Junction, NJ, USA). Standard of cabozantinib N-oxide was purchased from Toronto Research Chemicals (Toronto, Canada). Ketoconazole, NADPH and other chemicals were all purchased from Merck (Darnstadt, Germany). The purity of all chemicals met the standards of American Chemical Society, unless otherwise noted. Male human hepatic microsomes (pooled sample) (sample LOT: 3043885) were from Gentest Corp. (Woburn, MA, USA). Microsomes from livers of twelve human donors were obtained from Gentest Corp. (Woburn, MA, USA) (Lot. no. HG43-1, HG103, HG74, HG93, HG24, HG27, HG23, HG32, HK31, HK34, HG03 and HG42). Each human microsomal sample was characterized for CYP, FMO, total protein contents and specific CYP activities by Gentest Corp. and reanalyzed by us by assays described in the protocols of Gentest Corp. Our data were similar to those reported by Gentest Corp. (Table 1). Human recombinant enzymes were used in the forms of Supersomes™ and obtained from Corning (Corning, NY, USA). In Supersomes™, microsomal fractions were isolated from insect cells that were transfected with baculovirus constructs containing cDNA of human CYP enzymes (CYP1A1/2, 1B1, 2A6, 2B6, 2C8/9/18/19/, 2D6, 2E1, 3A4). The Supersomes™ also express NADPH:CYP oxidoreductase (POR). However, because they are microsomes (particles of broken endoplasmic reticulum), other enzymes (proteins) of the endoplasmic reticulum membrane (like NADH:cytochrome b5 reductase and cytochrome b5) are also expressed at basal levels in these Supersomes™. We also utilized Supersomes™, which overexpressed cytochrome b5, in a molar ratio of CYP to cytochrome b5 of 1 to 5. In Supersomes™, where cytochrome b5 was not overexpressed (see above), pure cytochrome b5 was added to reach a molar ratio of CYP to cytochrome b5 of 1 to 5. Reconstitution of Supersomes™ with purified cytochrome b5 was performed as described previously. Human recombinant FMOs and AO were also used in the forms of Supersomes™ (Gentest Corp., Woburn, MA, USA). These microsomal fractions were isolated from insect cells that are transfected with baculovirus constructs containing cDNA of human FMO1, FMO3, FMO5 or AO enzymes.
(§2) The reaction was initiated by adding NADPH. In control incubations, either microsomes or CYP (FMO, AO) or NADPH were omitted. […] The reaction was stopped by extraction with ethyl acetate (2 × 1 mL). […] Cabozantinib metabolites separated by HPLC were characterized by mass spectroscopy (see further details below).

human liver microsomes [2] = experiment: Oxidation of cabozantinib by hepatic microsomes of individual human donors (HPLC of metabolites); type: in vitro ADME; conditions: 50 µM cabozantinib, 20 min; remark: listed apart in the source
Description: as §1, §2

CYP3A4 = CYP3A4 (Homo sapiens, UniProt P08684); experiment: Kinetics of cabozantinib oxidation by recombinant CYP3A4 (Supersomes); type: in vitro ADME; design: purchased Corning (Corning, NY, USA); host or cells: insect cells (baculovirus); conditions: formation of the metabolite from cabozantinib by CYP3A4 without cyt b5
CYP3A4, sequence (P08684 whole entry): as above
Description: Cabozantinib was from MedChemExpress (Monmouth Junction, NJ, USA). Standard of cabozantinib N-oxide was purchased from Toronto Research Chemicals (Toronto, Canada). Ketoconazole, NADPH and other chemicals were all purchased from Merck (Darnstadt, Germany). The purity of all chemicals met the standards of American Chemical Society, unless otherwise noted. Male human hepatic microsomes (pooled sample) (sample LOT: 3043885) were from Gentest Corp. (Woburn, MA, USA). Microsomes from livers of twelve human donors were obtained from Gentest Corp. (Woburn, MA, USA) (Lot. no. HG43-1, HG103, HG74, HG93, HG24, HG27, HG23, HG32, HK31, HK34, HG03 and HG42). Each human microsomal sample was characterized for CYP, FMO, total protein contents and specific CYP activities by Gentest Corp. and reanalyzed by us by assays described in the protocols of Gentest Corp. Our data were similar to those reported by Gentest Corp. (Table 1). Human recombinant enzymes were used in the forms of Supersomes™ and obtained from Corning (Corning, NY, USA). In Supersomes™, microsomal fractions were isolated from insect cells that were transfected with baculovirus constructs containing cDNA of human CYP enzymes (CYP1A1/2, 1B1, 2A6, 2B6, 2C8/9/18/19/, 2D6, 2E1, 3A4). The Supersomes™ also express NADPH:CYP oxidoreductase (POR). […]

CYPs in human liver = experiment: Contributions of CYP enzymes to formation of cabozantinib metabolites in human livers; type: in vitro ADME; conditions: calculated from velocities with cyt b5 and CYP expression levels in human liver
VEGFR2 = conditions: read-out: IC50 for VEGFR2; estimated; cited from earlier work
MET = conditions: read-out: IC50 for MET; estimated; cited from earlier work
human liver microsomes [3] = experiment: Correlation of CYP- and FMO-linked catalytic activities with amounts of cabozantinib metabolites formed in microsomes; type: in vitro ADME; conditions: twelve human microsomal samples; for Correlation coefficient (r) with CYP2C19 activity: (S)-Mephenytoin-4′-hydroxylase; for Correlation coefficient (r) with CYP2B6 activity: (S)-Mephenytoin-N-demethylase; for Correlation coefficient (r) with CYP2D6 activity: Buferalol-1′-hydroxylase; for Correlation coefficient (r) with CYP2E1 activity: Chlorzoxazone-6-hydroxylase; for Correlation coefficient (r) with CYP2A6 activity: Coumarine-7-hydroxylase; for Correlation coefficient (r) with CYP2C9 activity: Diclofenac-4′-hydroxylase; for Correlation coefficient (r) with CYP4A11 activity: Lauric acid-12-hydroxylase; for Correlation coefficient (r) with FMO activity: Methyl-p-tolyl sulfide oxidase; for Correlation coefficient (r) with CYP2C8 activity: Paclitaxel-6α-hydroxylase; for Correlation coefficient (r) with CYP1A2 activity: Phenacetin-O-deethylase; for Correlation coefficient (r) with Total CYPs: amount of metabolite formed vs total CYP content
Protocol: Data are expressed as mean ± SD. Data were analyzed using GraphPad Prism 7 (San Diego, CA, USA) using ANOVA with post-hoc Tukey HSD Test. All p-values are two-tailed and considered significant at the 0.05 level. […] Correlation coefficients (r) were based on a sample size of twelve for human microsomes. All p-values are two-tailed and considered significant at the 0.05 level.
To clarify these correlations, multivariate analysis was used to investigate the dependence of metabolite formation on these CYP activities. Activities of CYP2A6, -2B6 and -2C8 in each microsomal sample were combined in pairs with the activities of CYP3A4 to see if any combination of the activities led to an improvement in the correlation with CYP3A4.

RET = conditions: estimated; cited from earlier work
[4] = target: CYP3A (cabozantinib oxidation: formation of cabozantinib N-oxide) (Homo sapiens, UniProt P08684); experiment: Inhibition study: effect of CYP inhibitors on cabozantinib oxidation in pooled human liver microsomes; conditions: human
CYP3A (cabozantinib oxidation: formation of cabozantinib N-oxide), sequence (P08684 2-503): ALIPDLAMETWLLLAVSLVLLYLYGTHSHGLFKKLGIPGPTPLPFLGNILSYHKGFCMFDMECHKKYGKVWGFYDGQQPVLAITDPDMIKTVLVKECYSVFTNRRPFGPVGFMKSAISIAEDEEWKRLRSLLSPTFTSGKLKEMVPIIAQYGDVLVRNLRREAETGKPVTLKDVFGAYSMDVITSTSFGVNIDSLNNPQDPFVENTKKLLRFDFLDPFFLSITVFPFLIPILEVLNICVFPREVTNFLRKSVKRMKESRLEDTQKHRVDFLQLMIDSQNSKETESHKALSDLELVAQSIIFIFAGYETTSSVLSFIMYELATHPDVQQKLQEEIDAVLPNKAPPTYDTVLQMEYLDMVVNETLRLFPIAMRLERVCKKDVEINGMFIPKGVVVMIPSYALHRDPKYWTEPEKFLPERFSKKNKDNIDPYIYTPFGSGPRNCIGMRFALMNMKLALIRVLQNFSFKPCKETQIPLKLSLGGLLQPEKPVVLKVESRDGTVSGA
Protocol: (§3) Inhibition studies in pooled human liver microsomes were conducted with six inhibitors. […] The IC50 values for employed inhibitors were determined by the procedure described previously. […] Then, mixtures were incubated for a further 20 min at 37 °C.

[5] = target: CYP3A (cabozantinib oxidation: formation of desmethyl cabozantinib) (Homo sapiens, UniProt P08684); experiment: as above; conditions: human
CYP3A (cabozantinib oxidation: formation of desmethyl cabozantinib), sequence (P08684 2-503): as above
Protocol: as §3

[6] = target: CYP3A (cabozantinib oxidation: formation of monohydroxy cabozantinib) (Homo sapiens, UniProt P08684); experiment: as above; conditions: human
CYP3A (cabozantinib oxidation: formation of monohydroxy cabozantinib), sequence (P08684 2-503): as above
Protocol: as §3

[7] = target: cabozantinib oxidation in pooled human liver microsomes (Homo sapiens, UniProt P08684); experiment: as above; conditions: pooled human liver microsomes, 50 µM cabozantinib
cabozantinib oxidation in pooled human liver microsomes, sequence (P08684 2-503): as above
Protocol: as §3

[8] = human liver microsomes sample HK23
[9] = human liver microsomes sample HK27
[10] = human liver microsomes sample HG03
[11] = human liver microsomes sample HG24
[12] = human liver microsomes sample HG32
[13] = human liver microsomes sample HG42
[14] = human liver microsomes sample HG43
[15] = human liver microsomes sample HG74
[16] = human liver microsomes sample HG93
[17] = human liver microsomes sample HG103
[18] = human liver microsomes sample HK31
[19] = human liver microsomes sample HK34

Amounts of cabozantinib metabolites (human liver microsomes [1]; [8]) [peak area/incubation time] | Amounts of cabozantinib metabolites (human liver microsomes [1]; [9]) [peak area/incubation time] | VMax (CYP3A4 + cyt b5) [peak area/min/nmol CYP] | Amounts of cabozantinib metabolites (human liver microsomes [2]; [10]) [peak area/incubation time] | Amounts of cabozantinib metabolites (human liver microsomes [2]; [11]) [peak area/incubation time] | Amounts of cabozantinib metabolites (human liver microsomes [2]; [12]) [peak area/incubation time] | Amounts of cabozantinib metabolites (human liver microsomes [2]; [13]) [peak area/incubation time] | Amounts of cabozantinib metabolites (human liver microsomes [2]; [14]) [peak area/incubation time] | Amounts of cabozantinib metabolites (human liver microsomes [2]; [15]) [peak area/incubation time] | Amounts of cabozantinib metabolites (human liver microsomes [2]; [16]) [peak area/incubation time] | Amounts of cabozantinib metabolites (human liver microsomes [2]; [17]) [peak area/incubation time] | Amounts of cabozantinib metabolites (human liver microsomes [2]; [18]) [peak area/incubation time] | Amounts of cabozantinib metabolites (human liver microsomes [2]; [19]) [peak area/incubation time] | VMax (CYP3A4) [peak area/min/nmol CYP] | Contribution of CYPs other than CYP3A4 to formation of the metabolite in human liver (CYPs in human liver) | Correlation coefficient (r) with CYP2C19 activity (human liver microsomes [3]) | Correlation coefficient (r) with CYP2B6 activity (human liver microsomes [3]) | Correlation coefficient (r) with CYP2D6 activity (human liver microsomes [3]) | Correlation coefficient (r) with CYP2E1 activity (human liver microsomes [3]) | Correlation coefficient (r) with CYP2A6 activity (human liver microsomes [3]) | Structure (SMILES) | further results
0.607 | 2.228 | 9.96 ± 0.92 | 1.672 | 0.752 | 1.338 | 1.609 | 3.491 | 1.106 | 1.935 | 0.644 | 1.537 | 1.359 | 1.54 ± 0.04 | less than 1% | −0.021 | 0.776 ** | −0.043 | 0.030 | 0.728 ** | COc1cc2c(Oc3ccc(NC(=O)C4(C(=O)Nc5ccc(F)cc5)CC4)cc3)cc[n+]([O-])c2cc1OC [M3, cabozantinib N-oxide] | Increase of oxidation / metabolite formation by co-expression of cyt b5 with CYP3A4 (CYP3A4 + cyt b5; Supersomes with cyt b5 vs without, 50 µM cabozantinib): 4.6 fold; IC50 (VEGFR2): 140 nM; IC50 (MET): 190 nM; Correlation coefficient (r) with CYP2C9 activity (human liver microsomes [3]): 0.130; Correlation coefficient (r) with CYP4A11 activity (human liver microsomes [3]): 0.223; Correlation coefficient (r) with FMO activity (human liver microsomes [3]): 0.341; Correlation coefficient (r) with CYP2C8 activity (human liver microsomes [3]): 0.737 **; Correlation coefficient (r) with CYP1A2 activity (human liver microsomes [3]): 0.216; Correlation coefficient (r) with Total CYPs (human liver microsomes [3]): 0.811 **; IC50 (RET): > 1000 nM
– | – | – | – | – | – | – | – | – | – | – | – | – | – | – | – | – | – | – | – | CC(=O)N1CCN(c2ccc(OCC3COC(Cn4ccnc4)(c4ccc(Cl)cc4Cl)O3)cc2)CC1 (centres unmarked) [ketoconazole] | IC50 at 20 min [4]: < 10 nM; IC50 at 20 min [5]: < 10 nM; IC50 at 20 min [6]: < 10 nM
– | – | – | – | – | – | – | – | – | – | – | – | – | – | – | – | – | – | – | – | Cc1ccc(-c2c(-c3nn(C)c4ncnc(N5CC[C@H](N6CCCCC6)C5)c34)cnn2C)cc1 [CYP3cide] | IC50 ([7]; read-out: IC50 for inhibition of formation of cabozantinib N-oxide): < 10 nM; IC50 ([7]; read-out: IC50 for inhibition of formation of desmethyl cabozantinib): < 10 nM; IC50 ([7]; read-out: IC50 for inhibition of formation of monohydroxy cabozantinib): 1120 nM
0.130 | 0.467 | 5.70 ± 0.24 | 0.335 | 0.149 | 0.185 | 0.329 | 0.625 | 0.256 | 0.371 | 0.144 | 0.377 | 0.305 | 1.44 ± 0.03 | less than 1% | 0.033 | 0.695 * | −0.015 | 0.140 | 0.841 *** | COc1cc2c(Oc3ccc(NC(=O)C4(C(=O)Nc5ccc(F)cc5)CC4)cc3)ccnc2cc1O [M2, desmethyl cabozantinib] | Correlation coefficient (r) with CYP2C9 activity (human liver microsomes [3]): 0.086; Correlation coefficient (r) with CYP4A11 activity (human liver microsomes [3]): 0.193; Correlation coefficient (r) with FMO activity (human liver microsomes [3]): 0.315; Correlation coefficient (r) with CYP2C8 activity (human liver microsomes [3]): 0.654 *; Correlation coefficient (r) with CYP1A2 activity (human liver microsomes [3]): 0.280; Correlation coefficient (r) with Total CYPs (human liver microsomes [3]): 0.794 **
